Measurements from patent US8399447B2, “Metal triangulo compound and methods of using the same” (National University of Singapore, priority 2007, dated 2013).
“Also recorded” adds a separate entry of the source.

Legend:
[1] = tested on: Bax; assay: Western blot of Bax sub-cellular localization; assay type: cell-based, human; conditions: HL60 cells, 12.5 and 25 μM, 12 hours
Method: (§1) FIG. 12 illustrates that [Os3(CO)10(μ-H)(2-S)C9H6N] induces apoptosis through the mitochondrial pathway. HL60 cells (30×10^6) were treated with 12.5 (A) and 25 μM (B) of [Os3(CO)10(μ-H)(μ-S)C9H6N] treated for 12 hours and cytosolic and mitochondria fractions were subjected to SDS-PAGE electrophoresis, transferred to PVDF membrane, and probe with anti-Cyt.C and anti-Bax antibodies (C). Anti-βactin antibody was used to assess equal loading of samples.
For analysis of poly(ADP-ribose) polymerase cleavage, lysates from 2×10^6 cells were prepared in sample buffer [50 mmol/L Tris/HCl (pH 6.8), 6 mol/L urea, 3% SDS, 0.003% Bromphenol Blue, and 6% β-mercaptoethanol] and subjected to Western blot analysis using anti-poly(ADP-ribose) polymerase (clone C-2-10, PharMingen) as described (Pervaiz et al., 199, supra). For Western blot analysis of Bax, cells (2×10^6) were lysed by adding […] of chilled 1× radioimmunoprecipitation assay buffer lysis buffer, and 50 μg of protein were subjected to 15% PAGE and transferred to polyvinylidene difluoride as above. Alternatively for analysis of Bax dimerization/multimerization, cell lysates were subjected to 10% native gel electrophoresis. […] Chemiluminescence was detected as described above.

[2] = tested on: Akt/PKB; assay: Western blot of total Akt/PKB and Akt/PKB phosphorylation (Ser473); assay type: cell-based, human
Method: The capability of the varying doses of [Os3(CO)10(μ-H)(μ-S)C9H6N] to dephosphorylate and deactivate Akt was shown by Western blot. HL 60 cells (2×10^6) were incubated with varying doses of [Os3(CO)10(μ-H)(μ-S)C9H6N] (12.5 and 25 μM) for 2, 4, and 6 hours and cell lysates were obtained for Western blot analysis of the Akt phosphorylation status.
HL-60 cells (2×10^6) were plated in a 12 well plate followed by exposure to the drug. Cells were harvested, washed once with PBS, and then lysed with cell lysis buffer [150 mmol/L NaCl, Tris-HCl (pH 7.4), 1% NP40]. Cell lysate (200 μg) was then electrophoresed on an 8% acrylamide gel. Antibodies were used to probe for total Akt and phosphorylated Akt/PKB at the Ser473 position (Cell Signaling, Beverly, Mass.). Protein blots were probed with anti β-actin (Sigma-Aldrich, St. Louis, Mo.) to check for equal protein loading).

[3] = tested on: cytochrome C; assay: Western blotting for cytochrome C release; assay type: cell-based, human; conditions: HL60 cells, 12.5 and 25 μM, 12 hours
Method: as §1
Cytochrome c release was assessed by Western blot analysis of cytosolic extracts from 30×10^6 cells as described previously (Hirpara, J. L. et al., J. Biol. Chem. (2001) 276, 514-521, incorporated herein by reference in its entirety; Pervaiz et al., 1999, supra). Cytosolic fractions were obtained and analysed by Western blotting.
Briefly, cells were washed twice with ice-cold PBS, pH 7.4, followed by centrifugation at 200×g for 5 minutes. The cell pellet was then resuspended in 600 μL of extraction buffer, containing 200 mmol/L mannitol, 68 mmol/L sucrose, 50 mmol/L PIPES-KOH, pH 7.4, 50 mmol/L KCl, 5 mmol/L EGTA, 2 mmol/L MgCl2, 1 mmol/L DTT, and protease inhibitors (Complete Cocktail; Boehringer Mannheim, Mannheim, Germany). […] Signal was detected by the Super Signal Substrate Western Blotting kit (Pierce).

[4] = tested on: jurkat cells; assay: Intracellular superoxide, lucigenin chemiluminescence, Jurkat; assay type: cell-based; conditions: 12.5 and 25 μM, 2 h and 4 h (FIG. 5A)
Method: (§2) (A) Jurkat cells and (B) HL-60 cells (2×10^6) were incubated with 12.5 and 25 μM [Os3(CO)10(μ-H)(μ-S)C9H6N] and […] O2^− was measured by a lucigenine-based chemiluminescence assay (C) A, cytosolic pH was determined with the pH-sensitive probe 2′,7′-bis(2-carboxyethyl)-5,6-carboxy-fluorescein.
(§3) A lucigenin-based chemiluminescence assay is routinely used in the laboratory as detailed in Clement and Pervaiz (Pervaiz S, Clement M V, Methods Enzymol. (2002) 352, 150-159). In brief, chemiluminescence was monitored using a Berthold Sirius Luminometer (Berthold Detection Systems GmbH, Bleichstralβe/Pforzheim, Germany). Data are described as relative light units/mg of protein (RLU/mg protein). Protein concentration was determined using the Coomassie Plus protein assay reagent from Pierce (Pierce Chemical Company, Rockford, Ill., USA) as detailed by the manufacturer.
(§4) This example illustrates determining whether and to what extent apoptosis induced by an osmium triangulo compound of the present invention is accompanied by an increase in intracellular ROS production. Cells were exposed to [Os3(CO)10(μ-H)(μ-S)C9H6N] for 2 h and 4 h and intracellular O2^− production was measured by a lucigenin-based chemiluminescence assay.

[5] = tested on: cells; assay: Intracellular pH with BCECF; assay type: cell-based; conditions: FIG. 5C
Method: as §2
Intracellular (pHi) was measured by loading cells with […] dye BCECF (Sigma). Briefly, cells (1×10^6) before or after exposure (2-12 h at 37° C.) to [Os3(CO)10(μ-H)(μ-S)C9H6N] was washed once with HBSS, resuspended in 0.1 ml of HBSS, and loaded with […] of 1 mM BCECF at 37° C. for 30 min in the dark. Cells were then resuspended in 0.5 ml of HBSS and analyzed using a Coulter Epics Elite ESP (Coulter, Hialeah, Fla.) flow cytometer with the excitation set at 488 nm. A minimum of 10,000 events was analyzed, and the ratio of BCECF fluorescence at 525 and 610 was used to obtain intracellular pH from a pH calibration curve. […] Immediately before flow cytometry, cells were loaded with […] nigericin (1 mM stock in absolute alcohol; Sigma), and fluorescence ratio measurements (525 nm/610 nm) of cells in nigericin-containing buffers of a range of pH were then used to relate histogram channel numbers to ipH. […]

[6] = tested on: HL-60 cells; assay: Flow cytometric analysis of intracellular H2O2 (DCFH-DA); assay type: cell-based, human
Method: Cells were then loaded with DCFH-DA (5 μM) for 15 minutes and the amount of intracellular H2O2 generated was indicated by the shift in fluorescence as detected by flow cytometry.
Intracellular H2O2 was determined by staining with 2,7-dichloro-fluorescein diacetate (Molecular Probes, Eugene, Oreg.), which is oxidised to dichlorofluorescein by H2O2 described elsewhere (Hirpara, J. L., et al., J Biol. Chem. (2001) 276, 514-521). In brief, HL-60 cells were exposed to […] [Os3(CO)10(μ-H)(μ-S)C9H6N] 4 h, loaded with […] 2′,7′-dichlorofluorescein diacetate at 37° C. for […], and analysed by flow cytometry (Coulter Epics Elite ESP; excitation 488 nm). Catalase (1000 units/ml) was used to scavenge intracellular H2O2 before addition of the drugs and flow cytometric analysis of H2O2 for 4 h, followed by flow cytometry for H2O2. At least 10,000 events were analysed.

[7] = tested on: Jurkat Neo and Jurkat BCL2 cells; assay: DNA fragmentation by PI, Jurkat Neo and Jurkat BCL2; assay type: cell-based; conditions: 12.5 and 25 μM, 18 hours; for DNA fragmentation / apoptosis with Bcl-2 overexpression: BCl2 overexpressing jurkat cells
Method: Jurkat Neo and Jurkat BCL2 cells were treated with 12.5 and 25 μM of [Os3(CO)10(μ-H)(μ-S)C9H6N] for 18 hours, immediately fixed in ethanol and stained with PI for DNA content analysis. Sub-G1 population indicates subdiploid DNA content indicative of apoptotic. The DNA fragmentation induced by [Os3(CO)10(μ-H)(μ-S)C9H6N] is inhibited in BCl2 overexpressing jurkat cells. Data shown are representative of at least three independent experiments.
For cellular DNA content determination, 1×10^6 cells/ml from each cell line were treated with [Os3(CO)10(μ-H)(μ-S)C9H6N]. After treatment, cells were washed twice with 1×PBS+1 FBS. Sample preparation and staining with PI for DNA content were performed as described elsewhere (32). Briefly, cell pellets were resuspended in 0.5 ml of 1×PBS+1% FBS and immediately fixed by adding 5 ml of 70% ethanol while vortexing to avoid clumping.
Fixed cells were left at 4° C. for 30 min, centrifuged at 1000×g for 5 min and washed once with 1×PBS+1% FBS. Cell pellets were then suspended in 0.5 ml of PI/RNAse. A solution prepared by adding 1/50 volume of PI stock and 1/40 volume of RNAse. A stock to 1×PBS+1% FBS and incubated for 30 min at 37° C. Stained cells were analyzed by flow cytometry with the excitation set at 488 nm and the emission set at 610 nm (red).

[8] = tested on: caspases 2, 8, 9, and 3; assay: Caspase activities (AFC substrates), HL60; assay type: cell-based, human; conditions: HL60 cells, within 6 hours; more pronounced than in Jurkat
Method: (§5) Activities of caspases 8, 2, 9, and 3 were determined in lysates of [Os3(CO)10(μ-H)(μ-S)C9H6N]-treated (A) Jurkat and (B) HL 60 cells and shown as fold increase over untreated cells.
(§6) Caspases 2, 3, 8, and 9 activities were assayed by using AFC-conjugated substrates supplied by Bio-Rad. Cells (1×10^6 cells/ml) were incubated with the drugs over a time course, washed twice with 1×PBS, resuspended in 50 μl of chilled cell lysis buffer (provided by the supplier), and incubated on ice for 10 min. 50 μl of 2× reaction buffer (10 mM HEPES, 2 mM EDTA, 10 mM KCl, 1.5 mM MgCl2, 10 mM dithiothreitol) and […] of the fluorogenic caspase-specific (VDVAD-AFC for caspase 2, DEVD-AFC for caspase 3, IETD-AFC for caspase 8, and LEHDAFC for caspase 9) were added to each sample and incubated at 37° C. for 1 h. Protease activity was determined by the relative fluorescence intensity at 505 nm following excitation at 400 nm using a spectrofluorimeter (Luminescence Spectrometer LS50B, PerkinElmer Life Sciences, Buckinghamshire, United Kingdom).

[9] = tested on: HL-60 cells; assay: DNA fragmentation by propidium iodide flow cytometry, HL-60; assay type: cell-based, human; conditions: HL-60, 12.5 and 25 μM, 24 hours
Method: FIG. 4 depicts the detection of DNA Fragmentation. DNA cleavage in [Os3(CO)10(μ-H)(μ-S)C9H6N]-treated tumour cells was assessed using flow cytometric analysis. HL-60 cells were treated with 12.5 and 25 μM [Os3(CO)10(pt-H)(μ-S)C9H6N] for 24 hours, immediately fixed in ethanol, and stained with PI for DNA content analysis. SubG1 population indicates subdiplod DNA content indicative of apoptotic DNA fragmentation. Data shown are representative of at least three independent experiments.
For cellular DNA content determination, 1×10^6 cells/ml from each cell line were treated with [Os3(CO)10(μ-H)(μ-S)C9H6N]. After treatment, cells were washed twice with 1×PBS+1 FBS. Sample preparation and staining with PI for DNA content were performed as described elsewhere (32). […]
Fixed cells were left at 4° C. for 30 min, centrifuged at 1000×g for 5 min and washed once with 1×PBS+1% FBS. […] Stained cells were analyzed by flow cytometry with the excitation set at 488 nm and the emission set at 610 nm (red).
The ability of the cells to scatter light in a forward direction (FS) correlates with cell volume. Os drug-treated cells were analysed for changes in the intensity of FS as compared to untreated control cells. A total of 10,000 cells per sample were studied and data were analyzed by the WINMDI software.

[10] = tested on: death receptor CD95; assay: Surface expression of CD95 by flow cytometry; assay type: cell-based, human; design: dose or concentration left out as unconfirmed; conditions: HL60 cells, 12 hours
Method: FIG. 8 depicts the upregulation of Cd95 by [Os3(CO)10(μ-H)(μ-S)C9H6N] in tumour cells. HL60 cells were treated with […] [Os3(CO)10(μ-H)(μ-S)C9H6N] for 12 hours and surface expression of CD95 was analysed by flow cytometry as described in Materials and Methods. The shaded histograms show unstained cells. Mouse IgG1k was used as an isotype control. At least 10,000 events were counted, and data shown are representative of at least three separate experiments.

[11] = tested on: caspases 2, 8, 9, and 3; assay: Caspase activities (AFC substrates), Jurkat; assay type: cell-based; conditions: Jurkat cells, within 6 hours
Method: as §5, §6

[12] = tested on: HL-60 cells; assay: Intracellular superoxide, lucigenin chemiluminescence, HL-60; assay type: cell-based, human; conditions: 12.5 and 25 μM, 2 h and 4 h (FIG. 5B)
Method: as §2, §3, §4

## [Os3(CO)10(μ-H)(μ-S)C9H6N]
[1]
  sub-cellular localization of Bax: no significant change
[2]; HL-60, 12.5 and 25 μM, 2, 4 and 6 hours
  total Akt signal: remained almost unchanged
[2]; HL-60, 12.5 and 25 μM, within 4 to 6 hours of exposure
  Akt phosphorylation: down regulation; also recorded: strong inhibition
[3]
  cytochrome C release: occurred in a dose dependent manner
[4]
  intracellular O2− production: early increase
[5]
  cytosolic pH: significant drop
[6]; HL-60, 12.5 and 25 μM, within 4 hours
  intracellular H2O2: significant surge
[6]; HL-60, catalase 1000 U/ml
  intracellular H2O2 in presence of catalase: completely blocked
[7]
  DNA fragmentation / apoptosis with Bcl-2 overexpression: inhibited
[7]; listed as [Os3(CO)10(μ-H)(μ-S)C9H9N]
  DNA fragmentation / apoptosis with Bcl-2 overexpression: blocked
[7]; Jurkat Neo
  DNA fragmentation (sub-G1): induces DNA fragmentation
[8]
  activation of caspases 2, 8, 9 and 3: induces caspase activation
[9]
  percentage of sub-diploid DNA (sub-G1 fraction): increased significantly
[10]
  surface expression of CD95: upregulation; also recorded: significant increase
[11]
  activation of caspases 2, 8, 9 and 3: induces caspase activation
[12]
  intracellular O2− production: early increase
